Source: patent US20150322001A1, “OMEGA-3 ANALOGUES” (The University of Sydney, priority 2012, published 2015)

Assays:
MDA-MB-231 cells [1] = experiment: MTT assay, inhibition of proliferation of MDA-MB-231 cells; format: cell-based, human; conditions: Homo sapiens, MTT reduction, 24 h
Procedure: The synthesized compounds given in Table 1 were tested for their activity in inhibiting the proliferation of MDA-MB-231 cells.
• 1. Cell culture and cell treatment: Breast cancer MDA-MB-231 cells were maintained in monolayers at 37° C. in DMEM containing penicillin and streptomycin, L-glutamine and 10% fetal bovine serum in an atmosphere of 95% air and 5% CO2. Cells were seeded into multi-well plates at 5×10^4 cells/mL; media was replaced 24 h later with fresh serum-free DMEM containing one of the test compounds in DMSO. DMSO was added to control cells at a final concentration of 0.1%. • 2. MTT assay: MDA-MB-231 cells were seeded in 96 well plates (0.2 mL/well), treated with compounds at 0.01, 0.1, 0.5, 1, 5 and 10 μM for 24 h. MTT (25 μL of 2.5 mg/mL solution) was added to each well for 2 h, after which MTT and media were removed. The blue formazan product formed from MTT by live cells was dissolved in DMSO (100 μL/well) and quantified spectrophotometrically at 540 nm in a multilabel counter. IC50s were calculated using GraphPad Prism (Prism 5.01). • 3. Caspase 3 activity: MDA-MB-231 cells were seeded in 96 well plates (0.2 mL/well), and were treated with compounds at 0.1, 0.5 and 1 μM for 24 h. Caspase 3 activity was quantified using the Caspase-Glo 3/7 assay kit according to manufacturer's protocol (Promega). Briefly, after 24 h treatment, fresh serum-free media was added to wells. Cells were equilibrated at room temperature for 30 min, caspase 3/7 substrate in lysis buffer was added and the luminescence was measured. Relative caspase 3/7 activity was calculated as [(luminescence in treatment−luminescence in control)/luminescence in control×100%]. • 4. Annexin V assay: MDA-MB-231 cells were seeded in 6 well plates (3 mL/well), and were treated with compounds at 0.1, 0.5 and 1 μM for 24 h. The apoptotic cells were quantified by Annexin V staining according to the manufacture's protocol (BD Biosciences). Briefly, after 24 h treatment, the media and harvested cells were collected, followed by PBS washes. Cells were stained with Annexin V and PI in binding buffer for 15 min at room temperature and quantified by flow cytometry (BD Biosciences). The apoptotic cells (%) were calculated as [(Annexin V positive cells in treatment−Annexin V positive cells in control)/Annexin V positive cells in control×100%]. • 5. Matrigel assay: MDA-MB-231 cells were trypsinized and resuspended in serum-free DMEM media (3.5×10^6 cells/mL). The cell suspension was mixed 1:1 with Matrigel solution (Bio Scientific). Aliquots (20 μL containing 3.5×10^4 cells) were placed into 6-well tissue-culture dishes to form well-defined droplets and incubated at 37° C. for 5 min to enable semi-solidification. Migration media was freshly made as DMEM containing 20% fetal bovine serum, epidermal growth factor 10 pg/mL, hydrocortisone 0.4 ng/mL, vascular endothelial growth factor (VEGF, 1 pg/mL), basic fibroblast growth factor (bFGF, 20 pg/mL), insulin-like growth factor-1 (40 pg/mL), ascorbic acid (2 ng/mL) and heparin (45 ng/mL). Compounds were added in migration media (3 mL/well) and plates were then incubated for 24 h. Cells that migrated out of droplets were scored using phase-contrast microscopy and digital image analysis (Olympus). • 6. Real-time RT PCR: Cell droplets from migration assays were collected, and total RNA was extracted using Tri Reagent (Astral Scientific) according to the manufacturer's protocol. RNA samples were treated with DNase (Promega) and gene expression was quantified using an Express Onestep Superscript qRT-PCT kit (Invitrogen) and gene-specific primers: heparanase (forward) […] and (reverse) GCAGCAACTTTGGCATTTC, integrin-α3 (forward) […] and (reverse) […], actin (forward) […] and (reverse) […]. The cycling conditions (Roto-Gene™ 6000; Corbett Research) were as follows: 95° C. (15 min); 40 cycles of denaturation (95° C., 30 s); annealing (60° C., 1 min); elongation (72° C., 1 min). […]

MDA-MB-231 cells [2] = experiment: Caspase 3 activity (Caspase-Glo 3/7) in MDA-MB-231 cells; format: cell-based, human; conditions: 0.1 μM, FIG. 1
Procedure: (§1) • 1. Cell culture and cell treatment: Breast cancer MDA-MB-231 cells were maintained in monolayers at 37° C. in DMEM containing penicillin and streptomycin, L-glutamine and 10% fetal bovine serum in an atmosphere of 95% air and 5% CO2. Cells were seeded into multi-well plates at 5×10^4 cells/mL; media was replaced 24 h later with fresh serum-free DMEM containing one of the test compounds in DMSO. DMSO was added to control cells at a final concentration of 0.1%. • 2. MTT assay: MDA-MB-231 cells were seeded in 96 well plates (0.2 mL/well), treated with compounds at 0.01, 0.1, 0.5, 1, 5 and 10 μM for 24 h. […] The blue formazan product formed from MTT by live cells was dissolved in DMSO (100 μL/well) and quantified spectrophotometrically at 540 nm in a multilabel counter. IC50s were calculated using GraphPad Prism (Prism 5.01). • 3. […] Caspase 3 activity was quantified using the Caspase-Glo 3/7 assay kit according to manufacturer's protocol (Promega). […] Cells were equilibrated at room temperature for 30 min, caspase 3/7 substrate in lysis buffer was added and the luminescence was measured. Relative caspase 3/7 activity was calculated as [(luminescence in treatment−luminescence in control)/luminescence in control×100%]. • 4. […] The apoptotic cells were quantified by Annexin V staining according to the manufacture's protocol (BD Biosciences). […]

MDA-MB-231 cells [3] = experiment: Matrigel assay, migration of MDA-MB-231 cells out of matrigel droplets; format: cell-based, human
Procedure: This supports the finding that these compounds are effective against metastatic cancer cells.
(§2) • 1. Cell culture and cell treatment: Breast cancer MDA-MB-231 cells were maintained in monolayers at 37° C. in DMEM containing penicillin and streptomycin, L-glutamine and 10% fetal bovine serum in an atmosphere of 95% air and 5% CO2. Cells were seeded into multi-well plates at 5×10^4 cells/mL; media was replaced 24 h later with fresh serum-free DMEM containing one of the test compounds in DMSO. DMSO was added to control cells at a final concentration of 0.1%. • 2. MTT assay: MDA-MB-231 cells were seeded in 96 well plates (0.2 mL/well), treated with compounds at 0.01, 0.1, 0.5, 1, 5 and 10 μM for 24 h. […] The blue formazan product formed from MTT by live cells was dissolved in DMSO (100 μL/well) and quantified spectrophotometrically at 540 nm in a multilabel counter. IC50s were calculated using GraphPad Prism (Prism 5.01). • 3. […] Caspase 3 activity was quantified using the Caspase-Glo 3/7 assay kit according to manufacturer's protocol (Promega). […] Cells were equilibrated at room temperature for 30 min, caspase 3/7 substrate in lysis buffer was added and the luminescence was measured. Relative caspase 3/7 activity was calculated as [(luminescence in treatment−luminescence in control)/luminescence in control×100%]. • 4. […]

MDA-MB-231 cells [4] = experiment: Annexin V assay (apoptotic cells) in MDA-MB-231 cells; format: cell-based, human; conditions: FIG. 2
Procedure: as §1

MCF-7 cells = experiment: MTT reduction in MCF-7 cells; format: cell-based; conditions: compared with MDA-MB-231
Procedure: These are also breast cancer cell lines, but are less aggressive than the MDA-MD-231 cells.
as §2

MDA-MB-468 cells = experiment: MTT reduction in MDA-MB-468 cells; format: cell-based; conditions: compared with MDA-MB-231

Structure (SMILES)	IC50 (MDA-MB-231 cells [1]) [nM]	caspase-3 activity (MDA-MB-231 cells [2])	IC50 (MDA-MB-231 cells [3]; Homo sapiens, MDA-MB-231, matrigel assay, read-out: IC50 (concentration at which migration is inhibited to 50% of control)) [nM]	Annexin V staining (early apoptosis) (MDA-MB-231 cells [4])	inhibition of MTT reduction (MCF-7 cells)	inhibition of MTT reduction (MDA-MB-468 cells)	migration of cells in the matrigel assay (MDA-MB-231 cells [3]; 10 μM)
Cc1ccc(NC(=O)NCCCCCCCCCCCCCCCC(=O)O)cc1 [Compound 16, 16-{[(4-methylphenyl)carbamoyl]amino}hexadecanoic acid]	750	particularly good	3800	increases this substantially			
CCNC(=O)NCCCCCCCCCCCCCCCC(=O)O [Compound 19, 16-[(ethylcarbamoyl)amino]hexadecanoic acid]	1800				inhibited MTT reduction	inhibited MTT reduction	61±5 % of control
